From ChEMBL document CHEMBL4732071, “Discovery of selective HDAC/BRD4 dual inhibitors as epigenetic probes” (Eur J Med Chem, 2021)
Calls of active or inactive are those of the source. The calls are words filed in the database; no cut-off is given here.

Assays:
Histone deacetylase 1 [1] = target: T1, Histone deacetylase 1 (Homo sapiens, UniProt Q13547); assay: Inhibition of HDAC1 (unknown origin) by fluorescence based assay
[2] = target: T2, Protein deacetylase HDAC6 (Homo sapiens, UniProt Q9UBN7); assay: Inhibition of HDAC6 (unknown origin) by fluorescence based assay
T2 sequence (Q9UBN7 whole entry): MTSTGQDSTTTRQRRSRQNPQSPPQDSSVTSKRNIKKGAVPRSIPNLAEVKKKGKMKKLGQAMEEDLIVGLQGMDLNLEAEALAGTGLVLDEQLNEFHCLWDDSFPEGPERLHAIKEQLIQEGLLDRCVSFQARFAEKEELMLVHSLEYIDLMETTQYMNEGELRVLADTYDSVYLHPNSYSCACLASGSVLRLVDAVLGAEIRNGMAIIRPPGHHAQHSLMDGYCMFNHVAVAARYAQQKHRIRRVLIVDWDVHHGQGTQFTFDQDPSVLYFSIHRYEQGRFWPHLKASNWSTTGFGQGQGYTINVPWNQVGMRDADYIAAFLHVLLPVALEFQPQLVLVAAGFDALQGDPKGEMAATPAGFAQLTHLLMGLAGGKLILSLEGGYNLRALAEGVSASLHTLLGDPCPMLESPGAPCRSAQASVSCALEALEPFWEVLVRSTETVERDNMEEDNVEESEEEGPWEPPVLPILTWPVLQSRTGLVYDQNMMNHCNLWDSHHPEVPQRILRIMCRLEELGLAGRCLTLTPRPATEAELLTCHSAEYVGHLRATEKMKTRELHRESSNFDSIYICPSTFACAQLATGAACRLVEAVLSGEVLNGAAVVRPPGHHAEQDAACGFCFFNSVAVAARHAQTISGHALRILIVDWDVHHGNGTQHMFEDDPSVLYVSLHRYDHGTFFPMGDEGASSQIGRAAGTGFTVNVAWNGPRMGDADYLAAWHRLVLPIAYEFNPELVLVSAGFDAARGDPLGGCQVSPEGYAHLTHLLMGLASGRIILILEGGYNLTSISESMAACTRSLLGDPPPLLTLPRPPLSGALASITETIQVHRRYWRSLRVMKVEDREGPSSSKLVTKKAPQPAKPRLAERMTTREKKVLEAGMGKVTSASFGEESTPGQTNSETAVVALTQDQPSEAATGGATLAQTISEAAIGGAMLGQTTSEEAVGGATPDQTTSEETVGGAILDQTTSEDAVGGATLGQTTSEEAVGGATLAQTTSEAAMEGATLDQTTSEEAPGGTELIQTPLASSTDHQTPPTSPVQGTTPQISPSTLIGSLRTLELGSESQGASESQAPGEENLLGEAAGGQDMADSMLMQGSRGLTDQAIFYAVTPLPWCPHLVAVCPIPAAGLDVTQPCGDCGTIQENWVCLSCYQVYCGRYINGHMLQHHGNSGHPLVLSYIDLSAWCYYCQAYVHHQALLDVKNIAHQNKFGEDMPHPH

[3] = target: T3, Bromodomain-containing protein 4 (Homo sapiens, UniProt O60885); assay: Inhibition of His-tagged BRD4 bromodomain 1 (unknown origin) using [Lys (5,8,12,16) Ac] H4(1-21) as substrate by fluorescence based assay
[4] = target: T3, Bromodomain-containing protein 4; assay: Inhibition of His-tagged BRD4 bromodomain 2 (unknown origin) using [Lys (5,8,12,16) Ac] H4(1-21) as substrate by fluorescence based assay
MV4-11 [5] = assay: Antiproliferative activity against human MV4-11 cells assessed as cell viability after 72 hrs by CCK8 assay; assay type: functional, cell-based; settings: MV4-11, 72 h
[6] = target: T4, Protein deacetylase HDAC6 (Homo sapiens) (UniProt Q9UBN7); assay: Inhibition of HDAC6 in human MV4-11 cells assessed as increase in acetylated alpha-tubulin at 10 to 1000 nM incubated for 24 hrs by Western blot analysis; assay type: cell-based; settings: dose 10-1000 nM
T4 sequence (whole entry): T2 sequence (Q9UBN7 whole entry)

Histone deacetylase 1 [7] = target: T1, Histone deacetylase 1; assay: Inhibition of HDAC1 in human MV4-11 cells assessed as increase in acetylated H3 at 10 to 1000 nM incubated for 24 hrs by Western blot analysis; assay type: cell-based; settings: dose 10-1000 nM
Histone deacetylase 3 = Histone deacetylase 3 (Homo sapiens, UniProt O15379); assay: Inhibition of HDAC3 (unknown origin) by fluorescence based assay
Histone deacetylase 4 = Histone deacetylase 4 (Homo sapiens, UniProt P56524); assay: Inhibition of HDAC4 (unknown origin) by fluorescence based assay
Histone deacetylase 8 = target: T5, Histone deacetylase 8 (Homo sapiens, UniProt Q9BY41); assay: Inhibition of HDAC8 (unknown origin) by fluorescence based assay
T5 sequence (Q9BY41 whole entry): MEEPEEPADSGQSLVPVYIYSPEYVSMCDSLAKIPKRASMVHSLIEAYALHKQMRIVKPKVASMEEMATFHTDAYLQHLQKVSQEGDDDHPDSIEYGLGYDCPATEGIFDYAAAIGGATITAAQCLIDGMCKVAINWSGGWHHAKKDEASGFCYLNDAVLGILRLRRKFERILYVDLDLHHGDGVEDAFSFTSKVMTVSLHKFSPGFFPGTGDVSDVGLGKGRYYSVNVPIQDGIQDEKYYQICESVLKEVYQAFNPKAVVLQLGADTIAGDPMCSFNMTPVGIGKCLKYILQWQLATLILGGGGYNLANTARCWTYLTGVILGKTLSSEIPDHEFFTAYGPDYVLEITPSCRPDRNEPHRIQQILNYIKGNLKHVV

Histone deacetylase 11 = target: T6, Histone deacetylase 11 (Homo sapiens, UniProt Q96DB2); assay: Inhibition of HDAC11 (unknown origin) by fluorescence based assay
T6 sequence (Q96DB2 whole entry): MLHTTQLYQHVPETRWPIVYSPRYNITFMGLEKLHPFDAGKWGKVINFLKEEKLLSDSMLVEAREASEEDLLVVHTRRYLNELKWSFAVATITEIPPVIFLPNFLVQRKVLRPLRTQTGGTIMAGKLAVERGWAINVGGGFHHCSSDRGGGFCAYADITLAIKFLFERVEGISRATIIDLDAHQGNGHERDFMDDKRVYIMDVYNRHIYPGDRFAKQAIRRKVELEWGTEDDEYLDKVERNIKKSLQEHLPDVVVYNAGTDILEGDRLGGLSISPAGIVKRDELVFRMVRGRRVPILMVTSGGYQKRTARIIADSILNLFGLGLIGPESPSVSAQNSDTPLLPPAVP

[8] = target: T3, Bromodomain-containing protein 4; assay: Inhibition of BRD4 in human MV4-11 cells assessed as reduction in c-Myc expression measured after 24 hrs by Western blot analysis; assay type: cell-based; settings: dose 10-1000 nM
MV4-11 [9] = assay: Induction of apoptosis in human MV4-11 cells at 1000 nM after 24 hrs by flow cytometry relative to control; assay type: functional
[10] = target: T3, Bromodomain-containing protein 4; assay: Inhibition of BRD4 in human MV4-11 cells assessed as reduction in c-Myc expression at 10 to 1000 nM measured after 24 hrs by Western blot analysis; assay type: cell-based; settings: dose 10-1000 nM
[11] = target: T3, Bromodomain-containing protein 4; assay: Inhibition of BRD4 in human MV4-11 cells assessed as upregulation of p21 expression at 10 to 1000 nM measured after 24 hrs by Western blot analysis; assay type: cell-based; settings: dose 10-1000 nM
[12] = target: T4, Protein deacetylase HDAC6 (Homo sapiens); assay: Inhibition of HDAC6 in human MV4-11 cells assessed as increase in acetylated alpha-tubulin at 1 uM incubated for 24 hrs by Western blot analysis; assay type: cell-based
Histone deacetylase 1 [13] = target: T1, Histone deacetylase 1; assay: Inhibition of HDAC1 in human MV4-11 cells assessed as increase in acetylated H3 at 1 uM incubated for 24 hrs by Western blot analysis; assay type: cell-based
MV4-11 [14] = assay: Induction of cell cycle arrest in human MV4-11 cells assessed as accumulation at G0/G1 phase at 1000 nM after 24 hrs by flow cytometry; assay type: functional, cell-based

T1 sequence (Q13547 whole entry): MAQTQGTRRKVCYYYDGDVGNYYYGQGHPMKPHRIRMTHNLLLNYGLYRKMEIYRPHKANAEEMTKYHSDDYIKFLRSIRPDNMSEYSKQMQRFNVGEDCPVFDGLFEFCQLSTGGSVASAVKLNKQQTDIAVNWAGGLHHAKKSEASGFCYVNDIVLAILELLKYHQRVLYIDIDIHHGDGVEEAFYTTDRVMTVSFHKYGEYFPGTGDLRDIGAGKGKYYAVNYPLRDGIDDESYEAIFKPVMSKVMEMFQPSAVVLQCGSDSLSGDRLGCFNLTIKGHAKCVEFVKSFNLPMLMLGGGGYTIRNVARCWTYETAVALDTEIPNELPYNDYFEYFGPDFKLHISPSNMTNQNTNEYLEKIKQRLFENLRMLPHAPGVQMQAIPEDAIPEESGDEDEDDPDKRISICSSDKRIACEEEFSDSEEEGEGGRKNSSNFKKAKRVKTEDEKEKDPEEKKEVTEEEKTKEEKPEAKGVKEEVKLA
Chain of Histone deacetylase 3 (O15379 whole entry): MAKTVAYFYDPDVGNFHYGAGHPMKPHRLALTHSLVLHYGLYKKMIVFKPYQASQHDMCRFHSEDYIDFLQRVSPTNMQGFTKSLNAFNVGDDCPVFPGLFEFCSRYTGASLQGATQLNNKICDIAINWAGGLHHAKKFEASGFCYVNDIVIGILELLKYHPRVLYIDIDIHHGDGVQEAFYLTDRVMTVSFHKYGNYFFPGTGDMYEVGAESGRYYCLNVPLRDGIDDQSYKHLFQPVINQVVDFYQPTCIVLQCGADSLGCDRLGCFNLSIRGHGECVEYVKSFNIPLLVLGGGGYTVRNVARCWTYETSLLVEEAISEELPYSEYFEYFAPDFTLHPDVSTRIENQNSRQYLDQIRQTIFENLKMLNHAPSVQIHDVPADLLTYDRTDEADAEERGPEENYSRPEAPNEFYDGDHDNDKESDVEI
Chain of Histone deacetylase 4 (P56524 whole entry): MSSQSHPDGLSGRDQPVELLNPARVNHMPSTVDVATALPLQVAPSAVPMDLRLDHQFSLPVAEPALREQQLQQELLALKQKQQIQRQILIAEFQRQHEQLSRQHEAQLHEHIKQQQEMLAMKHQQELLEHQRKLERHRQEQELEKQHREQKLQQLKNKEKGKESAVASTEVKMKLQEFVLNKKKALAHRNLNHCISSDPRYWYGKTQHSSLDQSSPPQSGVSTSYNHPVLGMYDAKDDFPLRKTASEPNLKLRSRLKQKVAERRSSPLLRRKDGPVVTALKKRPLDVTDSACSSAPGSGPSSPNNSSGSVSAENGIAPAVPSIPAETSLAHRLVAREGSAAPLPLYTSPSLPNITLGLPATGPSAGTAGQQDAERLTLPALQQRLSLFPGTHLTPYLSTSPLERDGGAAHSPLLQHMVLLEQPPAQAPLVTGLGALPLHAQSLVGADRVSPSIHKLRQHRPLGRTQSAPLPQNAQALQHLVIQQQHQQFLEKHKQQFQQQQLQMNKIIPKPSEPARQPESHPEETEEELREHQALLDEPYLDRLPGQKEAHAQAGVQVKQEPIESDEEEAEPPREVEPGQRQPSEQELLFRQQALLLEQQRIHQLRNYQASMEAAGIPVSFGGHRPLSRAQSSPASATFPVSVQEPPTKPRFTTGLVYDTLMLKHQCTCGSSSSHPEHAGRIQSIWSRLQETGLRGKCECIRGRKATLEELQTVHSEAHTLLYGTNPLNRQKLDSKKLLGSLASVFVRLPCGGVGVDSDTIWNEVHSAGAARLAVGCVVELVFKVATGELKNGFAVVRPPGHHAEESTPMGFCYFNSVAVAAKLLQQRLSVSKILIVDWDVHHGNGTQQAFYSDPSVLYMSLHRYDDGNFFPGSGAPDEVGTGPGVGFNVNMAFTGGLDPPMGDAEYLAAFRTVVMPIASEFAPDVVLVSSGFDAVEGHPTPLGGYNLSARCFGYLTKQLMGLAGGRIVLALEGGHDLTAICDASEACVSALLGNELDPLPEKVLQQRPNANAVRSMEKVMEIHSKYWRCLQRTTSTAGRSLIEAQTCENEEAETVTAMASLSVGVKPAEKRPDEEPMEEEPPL

Row | IC50 (Histone deacetylase 1 [1]) [nM] | IC50 [2] [nM] | IC50 [3] [nM] | IC50 [4] [nM] | IC50 (MV4-11 [5]) [nM] | Acetylated alpha-tubulin increase (active/not active) [6] | inhibition (Histone deacetylase 1 [7]) | IC50 (Histone deacetylase 3) [nM] | IC50 (Histone deacetylase 4) [nM] | IC50 (Histone deacetylase 8) [nM] | IC50 (Histone deacetylase 11) [nM] | inhibition [8] | inhibition [10] | inhibition [11] | inhibition [12] | inhibition (Histone deacetylase 1 [13]) | Structure (SMILES) | Activity (MV4-11 [9]) [%] | Activity (MV4-11 [14])
1 | 19.4 | 5.4 | 29.5 | 6 | 160 | Active | Active | 36.4 | > 10000 | 99.6 | > 10000 | Active | – | – | – | – | CC(C)Oc1ccc(C(C)(C)O)cc1-c1cn(C)c(=O)c2[nH]c(C(=O)NCCCCCCC(=O)NO)cc12 | 53.73 | –
2 | 168 | 15.3 | 42.1 | 11.3 | 570 | Active | inactive | – | – | – | – | – | Active | – | – | – | Cn1cc(-c2ccccc2Oc2ccccc2)c2cc(C(=O)NCc3ccc(C(=O)NO)cc3)[nH]c2c1=O | – | –
3 | 142 | 4 | 13.1 | 4.8 | 180 | inactive | – | – | – | – | – | – | Active | – | – | – | Cn1cc(-c2ccccc2Oc2ccccc2)c2cc(C(=O)NCCCCC(=O)NO)[nH]c2c1=O | – | –
4 | 59.7 | – | 5.6 | 2.1 | 40 | – | Active | 1440 | > 10000 | > 10000 | > 10000 | Active | – | – | – | – | CC(C)Oc1ccc(C(C)(C)O)cc1-c1cn(C)c(=O)c2[nH]c(C(=O)NCc3ccc(C(=O)Nc4ccccc4N)cc3)cc12 | 57.31 | –
5 | 44.4 | 3.4 | 21.4 | 3.8 | 610 | – | – | – | – | – | – | – | Active | – | – | – | Cn1cc(-c2ccccc2Oc2ccccc2)c2cc(C(=O)NCCCCCC(=O)NO)[nH]c2c1=O | – | –
6 | 126 | > 500 | 31.7 | 18.7 | 80 | inactive | Active | – | – | – | – | – | Active | Active | – | – | Cn1cc(-c2ccccc2Oc2ccccc2)c2cc(C(=O)NCc3ccc(C(=O)Nc4ccccc4N)cc3)[nH]c2c1=O | – | –
7 | 29.5 | 4.7 | 38.6 | 5.3 | 180 | – | – | – | – | – | – | – | Active | – | Active | Active | Cn1cc(-c2ccccc2Oc2ccccc2)c2cc(C(=O)NCCCCCCC(=O)NO)[nH]c2c1=O | – | –
8 | 228 | 17.2 | 369 | 1.2 | 300 | Active | – | 161 | > 10000 | 583 | 2750 | Active | – | – | – | – | Cc1cc(F)cc(C)c1Oc1ccc(C(C)(C)O)cc1-c1cn(C)c(=O)c2[nH]c(C(=O)NCCCCCCC(=O)NO)cc12 | 19.29 | Active
9 | 29.8 | 5.5 | 26.2 | 5.8 | 220 | – | – | – | – | – | – | – | – | – | – | – | Cn1cc(-c2cc(C(C)(C)O)ccc2OC2CC2)c2cc(C(=O)NCCCCCCC(=O)NO)[nH]c2c1=O | – | –
